Laboratory results from ChEMBL document CHEMBL3044701, “Synthesis, characterization and biological activity of Schiff bases derived from metronidazole” (Med Chem Res, 2012).
≈ marks a conversion by molar mass, not a printed value. Calls of active or inactive are those of the source. No cut-off for these calls is given here.

Experiments:
[1] = tested on: Candida albicans; assay: Antifungal activity against Candida albicans ATCC 10231 after 24 hr by broth microdilution method; format: functional; conditions: ATCC 10231, 24 h
[2] = tested on: Staphylococcus aureus; assay: Antibacterial activity against Staphylococcus aureus ATCC 6538P after 24 hr by broth microdilution method; format: functional
[3] = tested on: Escherichia coli; assay: Antibacterial activity against Escherichia coli ATCC 8739 after 24 hr by broth microdilution method; format: functional; conditions: ATCC 8739, 24 h
[4] = tested on: Clostridium sporogenes; assay: Antibacterial activity against Clostridium sporogenes ATCC 19404 after 24 hr by broth microdilution method; format: functional; conditions: ATCC 19404, 24 h
[5] = tested on: Giardia intestinalis; assay: Antigiardial activity against Giardia intestinalis WB by trypan blue assay; format: functional, organism-based; conditions: Giardia duodenalis
[6] = tested on: Candida albicans; assay: Antifungal activity against Candida albicans ATCC 10231 up to 1.25 mg/ml after 24 hr by broth microdilution method; format: functional, organism-based
[7] = tested on: Escherichia coli; assay: Antibacterial activity against Escherichia coli ATCC 8739 up to 1.25 mg/ml after 24 hr by broth microdilution method; format: functional, organism-based
[8] = tested on: Staphylococcus aureus; assay: Antibacterial activity against Staphylococcus aureus ATCC 6538P up to 1.25 mg/ml after 24 hr by broth microdilution method; format: functional, organism-based
[9] = tested on: Giardia intestinalis; assay: Ratio of metronidazole IC50 to compound IC50 for Giardia intestinalis; format: functional, Giardia duodenalis

Q: For `Cc1ccc(/C=N/CCn2c([N+](=O)[O-])cnc2C)cc1`, which MIC ([1]; read-out: MIC) is on record?
A: 1000 µM

Q: And the MIC ([2]; read-out: MIC)?
A: 6890 µM

Q: And the MIC ([3]; read-out: MIC)?
A: 4370 µM

Q: What about the MIC [4] of the same compound?
A: 1440 µM (≈ 392 µg/mL)

Q: And the IC50 [5]?
A: 1360 nM

Q: What does the source list for `Cc1ncc([N+](=O)[O-])n1CC/N=C/c1ccco1`?
A: MIC ([2]; read-out: MIC): 8850 µM; MIC ([3]; read-out: MIC): 8850 µM; MIC [4]: 236 µM (≈ 58.6 µg/mL); IC50 [5]: 2780 nM; Activity [6]: inactive

Q: What does the source list for `Cc1ncc([N+](=O)[O-])n1CC/N=C/c1cc(Cl)ccc1O`?
A: MIC ([1]; read-out: MIC): 440 µM; MIC ([2]; read-out: MIC): 760 µM; MIC ([3]; read-out: MIC): 760 µM; MIC [4]: 1010 µM (≈ 313 µg/mL); IC50 [5]: 4320 nM

Q: For `Cc1ncc([N+](=O)[O-])n1CC/N=C/c1ccc([N+](=O)[O-])cc1`, which MIC ([1]; read-out: MIC) is on record?
A: 450 µM

Q: And the MIC [4]?
A: 257 µM (≈ 77.9 µg/mL)

Q: And the IC50 [5]?
A: 1830 nM

Q: And the Activity [7]?
A: inactive

Q: What about the Activity [8] of the same compound?
A: inactive

Q: How did the MIC ([2]; read-out: MIC) turn out when `Cc1ncc([N+](=O)[O-])n1CC/N=C/c1ccncc1` was run?
A: 8460 µM

Q: And the MIC ([3]; read-out: MIC)?
A: 8460 µM

Q: What about the MIC [4] of the same compound?
A: 376 µM (≈ 97.5 µg/mL)

Q: What about the IC50 [5] of the same compound?
A: 11200 nM

Q: What about the Activity [6] of the same compound?
A: inactive

Q: `CC1(C)S[C@@H]2[C@H](NC(=O)[C@H](N)c3ccccc3)C(=O)N2[C@H]1C(=O)O` [AMPICILLIN] was tested. Which MIC [2] did it give?
A: 0.036 µg/mL

Q: And the MIC [3]?
A: 2.3 µg/mL

Q: With `Cc1ncc([N+](=O)[O-])n1CC/N=C/c1ccccc1Cl` as the compound, how does the MIC ([1]; read-out: MIC) read?
A: 170 µM

Q: What about the MIC ([2]; read-out: MIC) of the same compound?
A: 2670 µM

Q: And the MIC ([3]; read-out: MIC)?
A: 2140 µM

Q: And the MIC [4]?
A: 267 µM (≈ 78.2 µg/mL)

Q: And the IC50 [5]?
A: 7290 nM

Q: With `Cc1ncc([N+](=O)[O-])n1CC/N=C/c1ccccc1O` as the compound, how does the MIC ([1]; read-out: MIC) read?
A: 360 µM

Q: And the MIC ([2]; read-out: MIC)?
A: 2000 µM

Q: And the MIC ([3]; read-out: MIC)?
A: 2240 µM

Q: What about the MIC [4] of the same compound?
A: 285 µM (≈ 78.2 µg/mL)

Q: And the IC50 [5]?
A: 2150 nM

Q: How did the MIC ([1]; read-out: MIC) turn out when `Cc1ncc([N+](=O)[O-])n1CC/N=C/c1ccc(F)cc1` was run?
A: 1990 µM

Q: What about the MIC ([2]; read-out: MIC) of the same compound?
A: 5090 µM

Q: What about the MIC ([3]; read-out: MIC) of the same compound?
A: 4300 µM

Q: And the MIC [4]?
A: 1130 µM (≈ 313 µg/mL)

Q: What about the IC50 [5] of the same compound?
A: 2390 nM

Q: What does the source list for `Cc1ncc([N+](=O)[O-])n1CCO` [METRONIDAZOLE]?
A: MIC ([2]; read-out: MIC): 2050 µM; MIC ([3]; read-out: MIC): 5480 µM; MIC [4]: 45.6 µM (≈ 7.8 µg/mL); IC50 [5]: 3740 nM; Activity [6]: inactive

Q: Which results are given for `Cc1ncc([N+](=O)[O-])n1CC/N=C/c1cccs1`?
A: MIC ([1]; read-out: MIC): 2070 µM; MIC ([2]; read-out: MIC): 7100 µM; MIC ([3]; read-out: MIC): 7100 µM; MIC [4]: 369 µM (≈ 97.5 µg/mL); IC50 [5]: 830 nM; Ratio IC50 [9]: 5

Q: Which MIC [1] does the source give for `Clc1ccc(COC(Cn2ccnc2)c2ccc(Cl)cc2Cl)c(Cl)c1` (centres undefined) [MICONAZOLE] here?
A: 2.9 µg/mL

Q: `COc1ccc(/C=N/CCn2c([N+](=O)[O-])cnc2C)cc1` was tested. Which MIC ([1]; read-out: MIC) did it give?
A: 340 µM

Q: And the MIC ([2]; read-out: MIC)?
A: 4340 µM

Q: What about the MIC ([3]; read-out: MIC) of the same compound?
A: 4340 µM

Q: What about the MIC [4] of the same compound?
A: 203 µM (≈ 58.5 µg/mL)

Q: And the IC50 [5]?
A: 2260 nM
